In this experiment the test system is cultured murine melanocytes (melan-a). Put plainly: Melanin assay in cultured murine melanocytes (melan-a). The class given is cell-based. The note with it: for inhibition at 1 µM / inhibition at 5 µM / IC50: Mus musculus; for inhibition at 1 µM / inhibition at 5 µM: 72 h; for inhibition at 1 µM: read-out: % Inh. @ 1 μM; for inhibition at 5 µM: read-out: % Inh. @ 5 μM. As for the experimental part: The Spectrum Collection library consisting of 2000 drug compounds or natural products was screened to identify novel pigmentation inhibitors or stimulators in cultured murine melanocytes (melan-a). Compounds were dissolved in dimethylsulfoxide (DMSO) to a final concentration of 10 mM. Screening was performed with cultured melanocytes in 24-well plates followed by melanin assay (see below). A minimum change of 50% in melanin formation was established as significant for a pigmentation inhibitor or stimulator. DMSO was used as a negative control and the widely used depigmenting agent, hydroquinone, was used as a positive control on every plate. Primary screening was performed at a final concentration of 1 μM and potential candidates from the primary screening were reconfirmed in duplicate at final concentrations of 1 and 5 μM.
Melan-a cells were plated at 5×10^4 cells per well in 1 ml of culture media in 24-well plates the day before adding the library compounds. All compounds were added at the indicated final concentrations. Cells were harvested after 72 hours of incubation, and melanin assay was performed.
The hits identified herein were purchased from Sigma (St Louis, Mo.). […] These compounds were dissolved in dimethylsulfoxide (DMSO) to a final concentration of 10 mM, and were tested for their effect on melanin synthesis at the indicated final concentrations.
For the primary and secondary screening, cells were harvested and dissolved in 200 μL of 2N NaOH in 20% DMSO at 70° C. A 180-μl aliquot of the resulting solution was measured for absorbance at 490 nm.
The lysates were centrifuged at 14,000 rpm for 10 minutes at 4° C. BCA protein assay kit (Pierce) was used to measure the protein concentrations of the supernatants, and bovine serum albumin was used as a standard. The remaining pellets were incubated with 100 μl ethanol-ether (1:1) for 10 minutes at room temperature. After removing the ethanol-ether, the pellets were dissolved in 200 μL of 2N NaOH in 20% DMSO at 70° C. A 180-μL aliquot of the resulting solution was measured for absorbance at 490 nm. The melanin contents were normalized to the total amount of protein.

[1] abbreviates: Melan-a, melanin formation, melan-a cells, 1 μM compound, 72 hours incubation.
[2] abbreviates: Melan-a, melanin formation, melan-a cells, 5 μM compound, 72 hours incubation.
[3] abbreviates: inhibition of melanin synthesis, melan-a cells, read-out: IC50.
Setting [4] is: melanin formation, melan-a cells, 1 μM compound, 72 hours incubation.
[5] abbreviates: melanin formation, melan-a cells, 5 μM compound, 72 hours incubation.

Counter-ions that a name gives are not always drawn. Like-named read-outs stand apart in the source and are kept apart here.

Regarding `C=C[C@H]1C[N@@]2CCC1C[C@H]2[C@H](O)c1ccnc2ccc(OC)cc12` (single isomer, unassigned; (+)) [ID 14, (+)-3-Hydroxybutyric acid, quinine salt], the “% Inh. @ 1 μM” value (melanin formation, melan-a cells, 1 μM compound, 72 hours incubation, 1 µM) is given as 32.6%. Further, the “% Inh. @ 5 μM” value (melanin formation, melan-a cells, 5 μM compound, 72 hours incubation, 5 µM) is 61.3%.
On to `CCN(CC)Cc1ccc(Nc2ccnc3cc(Cl)ccc23)cc1O` [ID 1, Amodiaquine Dihydrochloride], for which the inhibition at 1 µM under setting [1] turned out to be 21%. Besides, the inhibition at 5 µM under setting [2] amounted to 79%. Besides, the IC50 under setting [3] was found to be 2600 ± 150 nM.
Turning to `CCN(CC)CCCC(C)Nc1ccnc2cc(Cl)ccc12` (centres unmarked) [ID 2, Chloroquine Diphosphate], where the note is “Melan-a”, the IC50 was 700 ± 180 nM, the inhibition at 1 µM came to 62% and the inhibition at 5 µM was 70%.
In the case of `COc1cc(NC(C)CCCN)c2ncccc2c1` (centres unmarked) [ID 3, Primaquine Diphosphate], for the setting “Melan-a”, the concentration for half-maximal inhibition (IC50) came to 6800 ± 370 nM, the inhibition at 1 µM was 30% and the inhibition at 5 µM was determined as 47%.
As for `CCCCOc1cc(C(=O)NCCN(CC)CC)c2ccccc2n1` [ID 4, Dibucaine Hydrochloride], the IC50 under setting [3] turned out to be 10200 ± 280 nM.
`C=C[C@H]1C[N@]2CC[C@H]1C[C@@H]2[C@@H](OC(=O)OCC)c1ccnc2ccc(OC)cc12` [ID 5, Quinine Ethyl Carbonate]: for the setting “Melan-a”, half-maximal inhibition (IC50) was put at 5100 ± 120 nM, the inhibition at 1 µM amounted to 15% and the inhibition at 5 µM was determined as 49%.
`C=C[C@H]1C[N@]2CC[C@H]1C[C@@H]2[C@@H](O)c1ccnc2ccc(OC)cc12` [ID 6, Quinidine Gluconate]: where the note is “Melan-a”, the IC50 turned out to be 2700 ± 140 nM, the inhibition at 1 µM was determined as 41% and the inhibition at 5 µM stood at 58%.
`C=C[C@H]1C[N@]2CC[C@H]1C[C@@H]2C(O)c1ccnc2ccc(OC)cc12` (some centres unmarked) [ID 7, Quinine Sulfate]: for the setting “Melan-a”, the IC50 is 1500 ± 190 nM, the inhibition at 1 µM stood at 31% and the inhibition at 5 µM is 58%.
Consider `CC[C@H]1CN2CCC1C[C@@H]2[C@@H](O)c1ccnc2ccc(OC)cc12` (some centres unmarked) [ID 8, Hydroquinidine], for which the inhibition at 1 µM under setting [1] came to 30.9%. Under setting [2], the inhibition at 5 µM is 52.3%. Further, the “IC50 (μM)” value (inhibition of melanin synthesis, melan-a cells) is reported as “active”.
As for `C=C[C@H]1C[N@]2CC[C@H]1C[C@H]2[C@H](O)c1ccnc2ccccc12` [ID 9, Cinchonidine], the inhibition at 1 µM under setting [1] came out at 25%. Moreover, the inhibition at 5 µM under setting [2] came out at 35.7%. Under setting [3], the IC50 was determined as 10900 ± 220 nM.
Turning to `C=C[C@H]1C[N@]2CC[C@H]1C[C@@H]2[C@H](O)c1ccnc2ccccc12` [ID 10, Cinchonine], the inhibition at 1 µM under setting [1] is 18%. In addition, the inhibition at 5 µM under setting [2] came out at 30%. Further, the 50% inhibitory concentration (IC50) under setting [3] is more than 20000 nM.
As to `OC(c1cc(C(F)(F)F)nc2c(C(F)(F)F)cccc12)C1CCCCN1` (centres unmarked) [ID 11, Mefloquine], the inhibition at 1 µM under setting [1] is 10%. Moreover, under setting [2], the inhibition at 5 µM is 75%. The IC50 under setting [3] was 2000 ± 150 nM.
For `C=C[C@H]1CN2CCC1CC2C(O)c1ccnc2ccc(OC)cc12` (some centres unmarked) [ID 12, Quinine], the inhibition at 1 µM under setting [1] was 42.6%. The inhibition at 5 µM under setting [2] stood at 70.9%.
On to `C=C[C@H]1C[N@@]2CCC1C[C@H]2[C@H](O)c1ccnc2ccc(OC)cc12` [ID 13, Quinine Salicylate], for which, under setting [1], the inhibition at 1 µM is 33%. The inhibition at 5 µM under setting [2] was 60%.
In the case of `C=CC1CN2CCC1CC2[C@H](O)c1ccnc2ccc(OC)cc12` (some centres unmarked) [ID 16, Quinine hydrobromide], the inhibition at 1 µM under setting [1] turned out to be 30.1%. The inhibition at 5 µM under setting [2] amounted to 63.9%.
For the compound `C=C[C@H]1CN2CCC1CC2[C@@H](O)c1ccnc2ccc(OC)cc12` (some centres unmarked) [ID 17, Quinine hydrochloride dihydrate], the inhibition at 1 µM under setting [1] amounted to 27.5%. Under setting [2], the inhibition at 5 µM stood at 61.5%.
In the case of `CC[C@H]1CN2CCC1CC2C(O)c1ccnc2ccc(OC)cc12` (some centres unmarked) [ID 18, Hydroquinine], the inhibition at 1 µM under setting [1] stood at 37.3%. The inhibition at 5 µM under setting [2] came to 71.7%.
For `CC[C@H]1C[N@@]2CCC1C[C@H]2[C@H](O)c1ccnc2ccc(OC)cc12` [ID 19, Hydroquinine hydrobromide hydrate], the inhibition at 1 µM under setting [1] was determined as 26.8%. Under setting [2], the inhibition at 5 µM came out at 67.4%.
Consider `CC[C@H]1CN2CCC1CC2[C@@H](O)c1ccnc2ccccc12` (some centres unmarked) [ID 20, Hydrocinchonine], for which, under “Melan-a”, the inhibition at 1 µM turned out to be 24% and the inhibition at 5 µM is 37.3%.
Regarding `C=C[C@H]1C[N+]2(Cc3ccccc3)CC[C@H]1C[C@H]2[C@H](O)c1ccnc2ccccc12.[Cl-]` [ID 21, N- Benzylcinchonidinium chloride], the “% Inh. @ 1 μM” value under setting [4] was 9.6%. The “% Inh. @ 5 μM” value under setting [5] worked out at 16.4%.
Regarding `CC[C@H]1CN2CCC1CC2[C@@H](OC(=O)c1ccc(Cl)cc1)c1ccnc2ccc(OC)cc12` (some centres unmarked) [ID 22, Hydroquinidine 4-chlorobenzoate], under setting [1], the inhibition at 1 µM was determined as 10%. Besides, the inhibition at 5 µM under setting [2] stood at 25.5%.
As to “(−)-3-Hydroxybutyric acid, quinine salt [ID 15]”, under setting [4], the “% Inh. @ 1 μM” value came out at 34.4%. The “% Inh. @ 5 μM” value under setting [5] was 63.9%.

(Values after US20090298868A1, “QUINOLINE COMPOUNDS AS MELANOGENESIS MODIFIERS AND USES THEREOF” (priority 2007, published 2009).)
